Consider 4 molecules from US20040152106A1, “Gene necessary for striatal function, uses thereof, and compounds for modulating same” (priority 1999, published 2004).

The structures appear in SMILES notation.

One test has as its target T1, PDE10A (Mus musculus, UniProt Q8CA95).
T1 sequence (Q8CA95 1-779 isoform Q8CA95-2): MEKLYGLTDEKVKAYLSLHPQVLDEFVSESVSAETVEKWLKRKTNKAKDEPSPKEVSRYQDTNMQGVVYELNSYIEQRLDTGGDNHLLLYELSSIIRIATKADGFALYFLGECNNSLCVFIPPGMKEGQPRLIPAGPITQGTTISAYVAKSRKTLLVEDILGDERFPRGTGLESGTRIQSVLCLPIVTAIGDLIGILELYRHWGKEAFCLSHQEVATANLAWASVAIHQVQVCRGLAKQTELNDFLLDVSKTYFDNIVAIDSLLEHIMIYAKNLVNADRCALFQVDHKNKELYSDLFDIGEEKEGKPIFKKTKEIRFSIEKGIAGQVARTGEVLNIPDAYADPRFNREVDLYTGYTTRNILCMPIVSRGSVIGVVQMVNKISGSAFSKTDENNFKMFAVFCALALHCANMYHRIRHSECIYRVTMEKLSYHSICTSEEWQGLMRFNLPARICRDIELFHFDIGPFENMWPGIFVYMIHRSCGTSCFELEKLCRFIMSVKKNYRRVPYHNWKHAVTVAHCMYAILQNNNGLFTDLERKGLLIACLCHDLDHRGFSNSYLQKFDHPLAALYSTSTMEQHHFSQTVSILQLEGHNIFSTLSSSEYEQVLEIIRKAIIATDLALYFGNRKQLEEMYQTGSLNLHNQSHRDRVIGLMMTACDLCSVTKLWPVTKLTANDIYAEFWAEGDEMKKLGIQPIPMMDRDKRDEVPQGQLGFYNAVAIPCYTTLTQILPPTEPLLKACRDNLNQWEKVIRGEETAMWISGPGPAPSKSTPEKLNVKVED
The settings on record: among inhibitors tested on PDE10A; cited from earlier work.

Test [1] has as its system Huntington's disease patient. Kind of test: Clinical use of PDE10A modulator in a Huntington's disease patient (case report). The class given is in vivo, human. Particulars: 200 mg twice daily resumed after 7 days of suspension. How it is done:
A person was admitted to hospital from a long-term care facility due to progressive deterioration of their physical and mental symptoms caused by Huntington's disease. The patient had been diagnosed with Huntington's disease. Prior to admission to the hospital, they had become increasingly aggressive and uncooperative. Moreover, there appeared to be an increase in the number of psychotic episodes. […] The patient had been stable for a number of years on the antipsycotic haloperidol (3 mg/day). For the last two years, the haloperidol had been replaced by olanzapine (2.5-7.5 mg/day). Minocycline, a tetracycline derivative, was administered at 50 mg twice daily for 7 days, followed by 100 mg twice daily for 7 days and finally 200 mg twice daily for 5 weeks. […] The minocycline treatment was suspended for 7 days. […] Minocycline (200 mg twice daily) treatment will continue indefinitely. The improvement in behaviour and decrease in apparent psychosis has allowed for the transfer of the patient from the acute care facility back to long-term care.

`CN1C(=O)c2[nH]c(Cc3ccc(C(F)(F)F)cc3)nc2N2C1=N[C@@H]1CCC[C@@H]12` [SCH 51866]: the “potency as inhibitor of PDE10A activity” value on PDE10A is listed as “highest potency”.
Consider `OCCN(CCO)c1nc(N2CCCCC2)c2nc(N(CCO)CCO)nc(N3CCCCC3)c2n1` [Dipyridamole], for which the “potency as inhibitor of PDE10A activity” value at PDE10A is “highest potency”.
As for `CN(C)c1ccc(O)c2c1C[C@H]1C[C@H]3[C@H](N(C)C)C(O)=C(C(N)=O)C(=O)[C@@]3(O)C(O)=C1C2=O` [Minocycline], in test [1], the “time to response after resumed treatment” value is reported as at most 3 days.
For `CC(C)Cn1c(=O)n(C)c(=O)c2[nH]cnc21` [IBMX], the “potency as inhibitor of PDE10A activity” value on PDE10A is reported as “potent inhibitor”.
